25 compounds from ChEMBL document CHEMBL3421631, “Structure-activity relationship and properties optimization of a series of quinazoline-2,4-diones as inhibitors of the canonical Wnt pathway” (Eur J Med Chem, 2015) can be followed below.

Molecules are shown by their SMILES.

Data set [1] in a line: Permeability of the compound at 10 uM by PAMPA-BBB assay in presence of mixture of porcine brain lipids dodecane. Type of data set: ADME. The conditions noted are these: pig.
Data set [2] can be described thus: Intrinsic clearance in male mouse liver microsomes at 1 uM by UPLC/TOF-MS analysis. The conditions noted are these: read-out: CLH. Format: ADME.
A short description of data set [3]: Metabolic stability in mouse plasma assessed as compound remaining measured at 10 uM after 3 hrs by LC-MS/MS analysis. Format: ADME, cell-free. The conditions noted are these: read-out: Stability.
Data set [4] is described as follows: Half life in CD1 mouse at 5 mg/kg, po. Format: ADME, organism-based. Set-up: dose 5 mg/kg, route oral. The conditions noted are these: in vivo.
Data set [5] in a line: Tmax in SCID mouse at 100 mg/kg, po qd for 14 days. Format: ADME, organism-based. Set-up: dose 100 mg/kg, route oral. The conditions noted are these: in vivo.
A short description of data set [6]: Half life in SCID mouse at 100 mg/kg, po qd for 1 to 7 days and 14 to 21 days. Type of data set: ADME, organism-based. The arrangement: dose 100 mg/kg, route oral. The conditions noted are these: in vivo.
Data set [7] is described as follows: Tmax in SCID mouse at 300 mg/kg, po qd for 1 to 3 days. The arrangement: dose 300 mg/kg, route oral. The conditions noted are these: in vivo. Type of data set: ADME, organism-based.
The nature of data set [8]: Cmax in SCID mouse at 300 mg/kg, po qd for 1 to 3 days. Type of data set: ADME, organism-based. The arrangement: dose 300 mg/kg, route oral. The conditions noted are these: in vivo.
The nature of data set [9]: Cmax in SCID mouse at 100 mg/kg, po qd for 1 to 7 days and 14 to 21 days. Set-up: dose 100 mg/kg, route oral. The conditions noted are these: in vivo. Type of data set: ADME, organism-based.
Data set [10] is described as follows: Half life in SCID mouse at 300 mg/kg, po qd for 1 to 3 days. Format: ADME, organism-based. Set-up: dose 300 mg/kg, route oral. The conditions noted are these: in vivo.
Data set [11] relates to Mus musculus. Nature of the data set: Volume of distribution at steady state in CD1 mouse at 5 mg/kg, po. The conditions noted are these: in vivo. The arrangement: dose 5 mg/kg, route oral. Format: ADME, organism-based.
Data set [12] in a line: Toxicity in human NCI-N87 cells xenografted po dosed SCID mouse qd for 14 days. Format: organism-based. The conditions noted are these: in vivo.
The nature of data set [13]: Oral bioavailability in CD1 mouse at 5 mg/kg. Type of data set: ADME, organism-based. The conditions noted are these: in vivo.
Data set [14] is described as follows: AUC in SCID mouse at 300 mg/kg, po qd for 1 to 3 days. Format: ADME, organism-based. The arrangement: dose 300 mg/kg, route oral. The conditions noted are these: plasma.
The nature of data set [15]: Cmax in CD1 mouse at 5 mg/kg, po. Format: ADME, organism-based. The arrangement: dose 5 mg/kg, route oral. The conditions noted are these: in vivo.
In data set [16] the test system is MDR1. Nature of the data set: Apparent permeability from apical to basolateral side in MDCK cells expressing human MDR1 at 10 uM after 120 mins by UPLC/TOF-MS analysis. Format: ADME, cell-based, Canis lupus familiaris. The conditions noted are these: dog, read-out: permeability.
Data set [17] in a line: AUC in SCID mouse at 100 mg/kg, po qd for 1 to 7 days and 14 to 21 days. Format: ADME, organism-based. Set-up: dose 100 mg/kg, route oral. The conditions noted are these: plasma.
The nature of data set [18]: Half life in SCID mouse at 100 mg/kg, po qd for 14 days. Format: ADME, organism-based. The arrangement: dose 100 mg/kg, route oral. The conditions noted are these: in vivo.
Data set [19] in a line: Cmax in SCID mouse at 100 mg/kg, po qd for 14 days. Type of data set: ADME, organism-based. The arrangement: dose 100 mg/kg, route oral. The conditions noted are these: in vivo.
Data set [20] in a line: Ratio of drug level in brain to plasma in CD1 mouse at 5 mg/kg, po. Type of data set: ADME, organism-based. Set-up: dose 5 mg/kg, route oral. The conditions noted are these: read-out: BPR.
Data set [21] in a line: Tmax in SCID mouse at 100 mg/kg, po qd for 1 to 7 days and 14 to 21 days. Type of data set: ADME, organism-based. The arrangement: dose 100 mg/kg, route oral. The conditions noted are these: in vivo.
The test system of data set [22] is Mus musculus. Nature of the data set: AUC (0 to infinity) in CD1 mouse at 5 mg/kg, po. Format: ADME, organism-based, Plasma. The arrangement: time infinity, dose 5 mg/kg, route oral. The conditions noted are these: in vivo.
The nature of data set [23]: AUC in SCID mouse at 100 mg/kg, po qd for 14 days. Format: ADME, organism-based. Set-up: dose 100 mg/kg, route oral. The conditions noted are these: plasma.

For the compound `CC(C)C(=O)N1CCN(C(=O)[C@H]2CC[C@H](Cn3c(=O)[nH]c4ccccc4c3=O)CC2)CC1`, the permeability entry in data set [1] was “permeable”.

As to `O=C(C1CC1)N1CCN(C(=O)[C@H]2CC[C@H](Cn3c(=O)[nH]c4ccccc4c3=O)CC2)CC1`, the permeability result in data set [1] is listed as “permeable”.

Regarding `COc1ccc2[nH]c(=O)n(C[C@H]3CC[C@H](C(=O)N4CCN(C(=O)C(C)C)CC4)CC3)c(=O)c2c1`, in data set [1], the permeability result was “permeable”.

For the compound `COCC(=O)N1CCN(C(=O)[C@H]2CC[C@H](Cn3c(=O)[nH]c4ccccc4c3=O)CC2)CC1`, the permeability entry in data set [1] is “permeable”.

On to `CC(C)C(=O)N1CCN(C(=O)[C@H]2CC[C@H](Cn3c(=O)[nH]c4cccc(Cl)c4c3=O)CC2)CC1`, for which, in [1], the permeability entry is given as “permeable”.

In the case of `COc1ccccc1N1CCN(C(=O)[C@H]2CC[C@H](Cn3c(=O)[nH]c4ccccc4c3=O)CC2)CC1`, the permeability result in data set [1] is recorded as “impermeable”.

In the case of `O=c1[nH]c2ccccc2c(=O)n1C[C@H]1CC[C@H](C(=O)N2CCN(CC3CC3)CC2)CC1`, the permeability entry in [1] is “permeable”.

With `O=c1[nH]c2ccccc2c(=O)n1C[C@H]1CC[C@H](C(=O)N2CCN(Cc3ccccc3)CC2)CC1`, in data set [1], the permeability result is on record as “impermeable”.

In the case of `COc1ccc2c(c1)c(=O)n(C[C@H]1CC[C@H](C(=O)N3CCN(C(C)=O)CC3)CC1)c(=O)n2C`, the microsomal CLint at 1 µM in data set [2] was 33.3 µL/min/mg. Moreover, in data set [3], the remaining at 3 h, 10 µM came out at 100%. For the same compound, the permeability result in data set [1] is “permeable”.

On to `CC(C)C(=O)N1CCN(C(=O)[C@H]2CC[C@H](Cn3c(=O)[nH]c4cccc(F)c4c3=O)CC2)CC1`, for which the permeability entry in [1] is “permeable”.

As to `O=C(C1CCC1)N1CCN(C(=O)[C@H]2CC[C@H](Cn3c(=O)[nH]c4ccccc4c3=O)CC2)CC1`, in data set [1], the permeability result is given as “permeable”.

Regarding `O=c1[nH]c2ccccc2c(=O)n1C[C@H]1CC[C@H](C(=O)N2CCN(c3cnccn3)CC2)CC1`, in data set [1], the permeability result is on record as “permeable”.

For the compound `COCC(=O)N1CCN(C(=O)[C@H]2CC[C@H](Cn3c(=O)c4cc(OC)ccc4n(C)c3=O)CC2)CC1`, the half-life in data set [4] was 2.2 h; in data set [6] it was 1.6 h; in data set [10], 5.4 h; in data set [18] it was 2.2 h. The Tmax in [5] was 0.5 h; in data set [7], 1 h; in [21], 0.5 h. In addition, the Cmax in data set [8] came out at 35 µM; in data set [9] it was 22 µM; in data set [15] it was 1.3 µM; in data set [19] it was 27 µM. For the same compound, the Vdss in data set [11] stood at 0.83 L/kg. Besides, in data set [12], the MTD at 336 h was 250 mg/kg. The compound also gave a bioavailability in data set [13] of 42%. The microsomal CLint at 1 µM in data set [2] worked out at 23 µL/min/mg. In addition, the figures for the exposure (AUC) in data set [14], in [17] and in data set [22] were 193 µM·h, 101 µM·h and 4.9 µM·h, respectively. In addition, in [16], the Papp A→B at 2 h, 10 µM was determined as 1.3 ×10⁻⁶ cm/s. In addition, the remaining at 3 h, 10 µM in data set [3] is 95%. Further, in data set [20], the Kp amounted to 0.03. In addition, the permeability entry in [1] was “permeable”. This compound also showed an AUC at 336 h in [23] of 113 µM·h.

On to `COc1ccc2c(c1)c(=O)n(C[C@H]1CC[C@H](C(=O)N3CCN(C(=O)C4CC4)CC3)CC1)c(=O)n2C`, for which the microsomal CLint at 1 µM in data set [2] was 139 µL/min/mg. The remaining at 3 h, 10 µM in [3] turned out to be 98%. In addition, the permeability result in data set [1] is given as “permeable”.

In the case of `CC(=O)N1CCN(C(=O)[C@H]2CC[C@H](Cn3c(=O)[nH]c4ccccc4c3=O)CC2)CC1`, in data set [1], the permeability result was “permeable”.

Regarding `COc1ccc2[nH]c(=O)n(C[C@H]3CC[C@H](C(=O)N4CCN(C(C)=O)CC4)CC3)c(=O)c2c1`, the microsomal CLint at 1 µM in data set [2] amounted to 41.2 µL/min/mg. Further, in data set [3], the remaining at 3 h, 10 µM was determined as 100%. Also, the permeability result in data set [1] is reported as “permeable”.

In the case of `COc1ccc2[nH]c(=O)n(C[C@H]3CC[C@H](C(=O)N4CCN(C(=O)C5CC5)CC4)CC3)c(=O)c2c1`, the microsomal CLint at 1 µM in data set [2] is 65.6 µL/min/mg. Further, the remaining at 3 h, 10 µM in data set [3] is 78%. Besides, in [1], the permeability entry is recorded as “permeable”.

In the case of `Cc1cccc2c(=O)n(C[C@H]3CC[C@H](C(=O)N4CCN(C(=O)C(C)C)CC4)CC3)c(=O)[nH]c12`, in data set [1], the permeability result was “permeable”.

On to `Cc1ccc2[nH]c(=O)n(C[C@H]3CC[C@H](C(=O)N4CCN(C(=O)C(C)C)CC4)CC3)c(=O)c2c1`, for which the permeability result in data set [1] is “permeable”.

Consider `O=c1[nH]c2ccccc2c(=O)n1C[C@H]1CC[C@H](C(=O)N2CCN(c3ncccn3)CC2)CC1`, for which, in [1], the permeability result is recorded as “permeable”.

Turning to `COCC(=O)N1CCN(C(=O)[C@H]2CC[C@H](Cn3c(=O)[nH]c4ccc(OC)cc4c3=O)CC2)CC1`, the microsomal CLint at 1 µM in data set [2] is 14.5 µL/min/mg. For the same compound, the remaining at 3 h, 10 µM in data set [3] was found to be 74%. For the same compound, the permeability result in data set [1] is listed as “permeable”.

Regarding `O=C(c1ccno1)N1CCN(C(=O)[C@H]2CC[C@H](Cn3c(=O)[nH]c4ccccc4c3=O)CC2)CC1`, the permeability entry in [1] is given as “permeable”.

For `CC(C)CN1CCN(C(=O)[C@H]2CC[C@H](Cn3c(=O)[nH]c4ccccc4c3=O)CC2)CC1`, the permeability entry in data set [1] is “permeable”.

Take `CC(C)C(=O)N1CCN(C(=O)[C@H]2CC[C@H](Cn3c(=O)[nH]c4cc(Cl)ccc4c3=O)CC2)CC1`: the permeability result in [1] was “permeable”.

For the compound `COc1cccc2[nH]c(=O)n(C[C@H]3CC[C@H](C(=O)N4CCN(C(=O)C(C)C)CC4)CC3)c(=O)c12`, the permeability result in data set [1] was “permeable”.
